# According to ChEMBL document CHEMBL4813952, “Axial Chiral Binaphthoquinone and Perylenequinones from the Stromata of Hypocrella bambusae Are SARS-CoV-2 Entry Inhibitors” (J Nat Prod, 2021):
# Activity calls are given as the source filed them. The rule behind the calls is not given here.
# Test system: Vesicular stomatitis virus
# Assay: Antiviral activity against pseudotype VSV harbouring glycoprotein infected in human 293T/ACE2 cells assessed as inhibition of viral infection measured after 48 hrs by luciferase reporter gene assay
# Type: functional, organism-based
row,Compound,Activity
1,COc1c(O)c2c(=O)cc(OC)c3c4c(OC)cc(=O)c5c(O)c(OC)c6c(c(c1C[C@](C)(O)[C@H]6C(C)=O)c23)c54,inactive
2,COC1=C(CC(C)=O)C(=O)c2c(c(O)cc(OC)c2-c2c(OC)cc(O)c3c2C(=O)C(CC(C)=O)=C(OC)C3=O)C1=O,inactive
3,COc1c2c3c4c(c(OC)c(=O)c5c(O)cc(OC)c(c6c(OC)cc(O)c(c1=O)c63)c54)[C@@H](C(C)=O)[C@@](C)(O)C2 [HYPOCRELLIN A],inactive
